Measurements from PubChem BioAssay AID248 (DTP/NCI, 2004).
Several values for one entry are separate records, joined by “and”; a condition that tells them apart may be missing. Equal entries are not always repeated. Toxic doses and inconclusive results are not listed. Rule as the data show it: active = T/C of 150% or more; inactive = T/C below 125%.

System: L1210 leukemia ip in BDF1 mice, survival T/C
Assay: NCI In Vivo Anticancer Drug Screen. Data for tumor model L1210 Leukemia (intraperitoneal) in B6D2F1 (BDF1) mice
Conditions: endpoint: mean survival time, higher = longer survival
In short: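 Read-out is survival time, reported as the treated-group measurement over the vehicle-control measurement.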

[1] = dose: 100.0 mg/kg/injection, schedule: Q01DX001 (ip), vehicle: carboxymethylcellulose (CMC)
[2] = dose: 200.0 mg/kg/injection, schedule: Q01DX001 (ip), vehicle: carboxymethylcellulose (CMC)
[3] = dose: 400.0 mg/kg/injection, schedule: Q01DX001 (ip), vehicle: carboxymethylcellulose (CMC)
[4] = dose: 100.0 mg/kg/injection, schedule: Q04DX003 (ip), vehicle: Klucel (hydroxypropylcellulose) (HPC)
[5] = dose: 200.0 mg/kg/injection, schedule: Q04DX003 (ip), vehicle: Klucel (hydroxypropylcellulose) (HPC)
[6] = dose: 400.0 mg/kg/injection, schedule: Q04DX003 (ip), vehicle: Klucel (hydroxypropylcellulose) (HPC)
[7] = dose: 100.0 mg/kg/injection, schedule: Q04DX003 (ip), vehicle: saline
[8] = dose: 200.0 mg/kg/injection, schedule: Q04DX003 (ip), vehicle: saline
[9] = dose: 400.0 mg/kg/injection, schedule: Q04DX003 (ip), vehicle: saline
[10] = dose: 100.0 mg/kg/injection, schedule: Q01DX009 (ip), vehicle: Klucel (hydroxypropylcellulose) (HPC)
[11] = dose: 200.0 mg/kg/injection, schedule: Q01DX009 (ip), vehicle: Klucel (hydroxypropylcellulose) (HPC)
[12] = dose: 400.0 mg/kg/injection, schedule: Q01DX009 (ip), vehicle: Klucel (hydroxypropylcellulose) (HPC)
[13] = dose: 100.0 mg/kg/injection, schedule: Q01DX001 (ip), vehicle: Klucel (hydroxypropylcellulose) (HPC)
[14] = dose: 200.0 mg/kg/injection, schedule: Q01DX001 (ip), vehicle: Klucel (hydroxypropylcellulose) (HPC)
[15] = dose: 400.0 mg/kg/injection, schedule: Q01DX001 (ip), vehicle: Klucel (hydroxypropylcellulose) (HPC)

Measured: T/C

O=S(=O)(Nc1ccccc1)c1ccccc1C(O)(c1ccccc1)c1ccccc1
inactive: [1] 106 % of control | [2] 90 % of control | [3] 93 % of control

CCCCOP(=O)(OCCCC)Oc1cccc([N+](=O)[O-])c1
inactive: dose: 6.25 mg/kg/injection, schedule: Q01DX009 (ip), vehicle: carboxymethylcellulose (CMC) 117 % of control and 89 % of control | dose: 6.25 mg/kg/injection, schedule: Q04DX002 (ip), vehicle: carboxymethylcellulose (CMC) 93 % of control and 101 % of control | dose: 12.5 mg/kg/injection, schedule: Q01DX009 (ip), vehicle: carboxymethylcellulose (CMC) 110 % of control and 89 % of control | dose: 12.5 mg/kg/injection, schedule: Q04DX002 (ip), vehicle: carboxymethylcellulose (CMC) 93 % of control and 101 % of control | dose: 25.0 mg/kg/injection, schedule: Q01DX001 (ip), vehicle: carboxymethylcellulose (CMC) 104 % of control | dose: 25.0 mg/kg/injection, schedule: Q01DX009 (ip), vehicle: carboxymethylcellulose (CMC) 98 % of control and 92 % of control | dose: 50.0 mg/kg/injection, schedule: Q01DX001 (ip), vehicle: carboxymethylcellulose (CMC) 100 % of control

CC(C)c1ccc(/C(=N\NC(N)=S)C2CC2)cc1
inactive: dose: 1.0 mg/kg/injection, schedule: Q01DX Z (ip), vehicle: methylcellulose (MC) 93 % of control | dose: 2.0 mg/kg/injection, schedule: Q01DX Z (ip), vehicle: methylcellulose (MC) 91 % of control | dose: 5.0 mg/kg/injection, schedule: Q01DX Z (ip), vehicle: methylcellulose (MC) 94 % of control | dose: 10.0 mg/kg/injection, schedule: Q01DX Z (ip), vehicle: methylcellulose (MC) 102 % of control

CN=C(N)Nc1ccccc1
inactive: dose: 50.0 mg/kg/injection, schedule: Q01DX009 (ip), vehicle: saline with Tween-80 97 % of control | dose: 50.0 mg/kg/injection, schedule: Q01DX009 (ip), vehicle: saline 101 % of control | dose: 100.0 mg/kg/injection, schedule: Q01DX009 (ip), vehicle: saline with Tween-80 90 % of control | dose: 100.0 mg/kg/injection, schedule: Q01DX009 (ip), vehicle: saline 101 % of control | dose: 200.0 mg/kg/injection, schedule: Q01DX009 (ip), vehicle: saline with Tween-80 97 % of control | dose: 200.0 mg/kg/injection, schedule: Q01DX009 (ip), vehicle: saline 101 % of control

CCc1ncc(C(C)(O)c2ccc(Cl)cc2)n1Cc1ccccc1 (stereo not given)
inactive: [4] 94 % of control | [5] 92 % of control | [6] 89 % of control

FC(F)(F)c1ccc(N2CCCCC2)cc1
inactive: dose: 75.0 mg/kg/injection, schedule: Q04DX002 (ip), vehicle: saline 103 % of control | dose: 150.0 mg/kg/injection, schedule: Q04DX002 (ip), vehicle: saline 95 % of control | dose: 300.0 mg/kg/injection, schedule: Q04DX002 (ip), vehicle: saline 95 % of control

CC(C)SP(=S)(C(C)C)C(C)C
inactive: dose: 100.0 mg/kg/injection, schedule: Q01DX001 (ip), vehicle: saline with Tween-80 115 % of control | dose: 200.0 mg/kg/injection, schedule: Q01DX001 (ip), vehicle: saline with Tween-80 102 % of control | dose: 400.0 mg/kg/injection, schedule: Q01DX001 (ip), vehicle: saline with Tween-80 94 % of control

Cc1cc(=O)[nH]n1-c1ccc(N)cc1
inactive: [4] 105 % of control | [5] 94 % of control | [6] 103 % of control

COc1cccc(/C=C(/SC)S(C)=O)c1OC (stereo not given)
inactive: [7] 105 % of control | [8] 106 % of control | [9] 102 % of control

COc1ccc(Cl)cc1NC(=O)Nc1cccc(F)c1
inactive: [10] 97 % of control | [11] 97 % of control | [12] 97 % of control

NC(=O)c1cc(Cl)c(OCc2ccccc2)c(Cl)c1
inactive: dose: 75.0 mg/kg/injection, schedule: Q01DX001 (ip), vehicle: saline with Tween-80 98 % of control | dose: 150.0 mg/kg/injection, schedule: Q01DX001 (ip), vehicle: saline with Tween-80 103 % of control | dose: 300.0 mg/kg/injection, schedule: Q01DX001 (ip), vehicle: saline with Tween-80 98 % of control

O=C1N=C2C=CC=CN2CC1O (stereo not given)
inactive: dose: 100.0 mg/kg/injection, schedule: Q04DX003 (ip), vehicle: saline with Tween-80 88 % of control | dose: 200.0 mg/kg/injection, schedule: Q04DX003 (ip), vehicle: saline with Tween-80 89 % of control | dose: 400.0 mg/kg/injection, schedule: Q04DX003 (ip), vehicle: saline with Tween-80 89 % of control

CCC1CN1P1(=O)OCC(CC)([N+](=O)[O-])CO1 (stereo not given)
inactive: [1] 90 % of control | [2] 101 % of control | [3] 97 % of control

O=C(Nc1cccc(CO)c1)c1ccc(S(=O)(=O)F)cc1
inactive: [13] 99 % of control | [14] 89 % of control | [15] 94 % of control

Cc1cc(N(CCCl)CCCl)ccc1C=Nc1ccc2c(c1)ncn2C
inactive: dose: 100.0 mg/kg/injection, schedule: Q04DX002 (ip), vehicle: Klucel (hydroxypropylcellulose) (HPC) 98 % of control | dose: 200.0 mg/kg/injection, schedule: Q04DX002 (ip), vehicle: Klucel (hydroxypropylcellulose) (HPC) 98 % of control | dose: 400.0 mg/kg/injection, schedule: Q04DX002 (ip), vehicle: Klucel (hydroxypropylcellulose) (HPC) 98 % of control

N#CC12CCC(c3ccccc31)c1ccccc12
inactive: dose: 100.0 mg/kg/injection, schedule: Q04DX002 (ip), vehicle: gum acacia 99 % of control | dose: 200.0 mg/kg/injection, schedule: Q04DX002 (ip), vehicle: gum acacia 101 % of control | dose: 400.0 mg/kg/injection, schedule: Q04DX002 (ip), vehicle: gum acacia 92 % of control

O=C(NO)c1cnccn1
inactive: dose: 296.0 mg/kg/injection, schedule: Q01DX015 (ip), vehicle: water 92 % of control | dose: 666.0 mg/kg/injection, schedule: Q01DX015 (ip), vehicle: water 118 % of control | dose: 1000.0 mg/kg/injection, schedule: Q01DX015 (ip), vehicle: water 120 % of control

CC(=O)c1c(O)cc(C)c(Cl)c1C
inactive: [10] 94 % of control | [11] 100 % of control | [12] 103 % of control

CCN(CC)c1nc2ccccc2o1
inactive: [1] 102 % of control | [2] 91 % of control | [3] 91 % of control

ClCCN(CCCl)c1ccc(/C=N/N2CCN(/N=C/c3ccc(N(CCCl)CCCl)cc3)CC2)cc1
inactive: [1] 97 % of control | [2] 92 % of control | [3] 106 % of control

O=C(Nc1cc(NC(=O)Nc2cccc(C3=NCCN3)c2)cc(C(=O)Nc2ccccc2)c1)Nc1cccc(C2=NCCN2)c1
inactive: dose: 15.0 mg/kg/injection, schedule: Q01DX Z (ip), vehicle: carboxymethylcellulose (CMC) 94 % of control | dose: 30.0 mg/kg/injection, schedule: Q01DX Z (ip), vehicle: carboxymethylcellulose (CMC) 103 % of control | dose: 60.0 mg/kg/injection, schedule: Q01DX Z (ip), vehicle: carboxymethylcellulose (CMC) 97 % of control | dose: 120.0 mg/kg/injection, schedule: Q01DX Z (ip), vehicle: carboxymethylcellulose (CMC) 107 % of control and 91 % of control | dose: 240.0 mg/kg/injection, schedule: Q01DX Z (ip), vehicle: carboxymethylcellulose (CMC) 104 % of control

N#CC(Cc1ccccc1Cl)(Cc1ccccc1Cl)c1ccccc1
inactive: [10] 110 % of control | [4] 108 % of control | [11] 105 % of control | [5] 94 % of control | [12] 105 % of control | [6] 108 % of control

NC(CSS(=O)(=O)O)=NCCCOCc1ccccc1
inactive: dose: 12.5 mg/kg/injection, schedule: Q04DX002 (ip), vehicle: Klucel (hydroxypropylcellulose) (HPC) 103 % of control | dose: 25.0 mg/kg/injection, schedule: Q04DX002 (ip), vehicle: Klucel (hydroxypropylcellulose) (HPC) 93 % of control

CCCCOC(=O)c1ccc(NC(=O)CCC(C)Cl)cc1 (stereo not given)
inactive: [7] 94 % of control | [8] 90 % of control | [9] 92 % of control

O=C(Nc1ccc(CCC2=NCCCN2)cc1)c1ccc(C(=O)Nc2ccc(CCC3=NCCCN3)cc2)cc1
inactive: dose: 60.0 mg/kg/injection, schedule: Q01DX Z (ip), vehicle: saline 118 % of control | dose: 120.0 mg/kg/injection, schedule: Q01DX Z (ip), vehicle: saline 110 % of control | dose: 240.0 mg/kg/injection, schedule: Q01DX Z (ip), vehicle: saline 112 % of control

COc1ccccc1-n1c(O)c(N=Nc2ccc(Br)cc2)c(=O)n(-c2ccccc2)c1=S
inactive: [13] 102 % of control | [14] 121 % of control | [15] 102 % of control
